We go through one substance from patent US20100113613A1, “CYCLOHEXANE POLYALCOHOL FORMULATION FOR TREATMENT OF DISORDERS OF PROTEIN AGGREGATION” (WARATAH PHARMACEUTICALS, priority 2006, published 2010).

Values joined by “and” are separate entries in the source; they are usually repeats but may differ in a detail not shown here. Identical values can stand only once.

Data set [1] is described as follows: in vivo. The conditions noted are these: rat, po, 150 mg/kg. The method, then: (§1) Three studies were performed to investigate the pharmacokinetics of oral administration of a scyllo-cyclohexanehexyl (Table 1):
Plasma pharmacokinetics (PK) of a scyllo-cyclohexanehexyl in rats was assessed after single oral doses of 15, 50 and 150 mg/kg. After single oral doses in rats, maximum plasma concentration (Cmax) and exposure (AUC0-t) values increased proportionally with dose level of the scyllo-cyclohexanehexyl. Other parameters were unchanged with dose level. The scyllo-cyclohexanehexyl was absorbed rapidly, with mean tmax observed between 1.0 and 2.2 hours post-dose. […] Estimates of mean residence time (MRT) were consistent. Volumes of distribution (Vdss) were large, indicating wide distribution of scyllo-cyclohexanehexyl in rats.

A short description of data set [2]: Brain penetrance: plasma and CSF pharmacokinetics after single oral doses in dogs. The class given is in vivo, dog. The text has this: CSF bathes the central nervous system and sits on the inside of the blood brain barrier. Although a centrally-acting drug will still need to penetrate brain tissue to exert an effect, quantification of drug in CSF may provide a gross estimate of brain-penetrance.

Data set [3] is described as follows: in vivo. The conditions noted are these: dog, po. As to the method: as §1
Two studies have investigated the single dose PK of oral administration of a scyllo-cyclohexanehexyl in dogs. The 14 day study investigated 18 animals. On Day 1 of this study Cmax and AUC values increased proportionally with dose level of a scyllo-cyclohexanehexyl. […] The extensive brain penetrance of the scyllo-cyclohexanhexyl (see below) may be relevant in this regard.

Data set [4] in a line: in vivo. Particulars: rat. The method, then:
Plasma PK of a scyllo-cyclohexanehexyl compound in rats was assessed after 28 days oral dosing of 15, 50 and 150 mg/kg, administered twice daily. […] Indeed, at this dose level, the Vdss, clearance and elimination rates appeared to be reduced with repeated dosing. […] As for single doses, the scyllo-cyclohexanehexyl was absorbed rapidly, with mean tmax observed between 1.2 and 1.3 hours post-dose. […] Estimates of MRT were consistent.

Data set [5] can be described thus: Single oral and intravenous dose pharmacokinetics, dose range-finding study in beagle dogs. The class given is in vivo, beagle dog. The conditions noted are these: dogs, comparison of PK profiles following oral and i.v. administration. As to the method:
PK of single oral doses of the scyllo-cyclohexanhexyl was also investigated in a preliminary fashion in a dose range-finding study in 5 beagle dogs. […] The Cmax and AUC values increased proportionally with dose, consistent with observations in the larger study. Estimates of t½ ranged from 2 to 5 hours. Neither dose nor route of administration had any clear effect on t½, MRT, Cl/F or Vdss.

The nature of data set [6]: in vivo. The conditions noted are these: dog, po, 150 mg/kg. The method, then: Plasma PK of a scyllo-cyclohexanhexyl in dogs was assessed after 14 days oral dosing of 15, 50 and 150 mg/kg, administered twice daily. As on Day 1 of this study Cmax and AUC values increased proportionally with dose level of scyllo-cyclohexanehexyl. However, dose-normalised exposures appeared to decrease with dose. This contrasts with positive trend observed after acute exposure. […] As for single doses, the scyllo-cyclohexanehexyl was absorbed rapidly, with tmax observed between 1.1 and 1.8 hours post-dose. […] Estimates of MRT were consistent. The Vdss and Cl/F values were similar for all dose levels.

A short description of data set [7]: CSF and plasma levels at end of 14 day repeat dose study in dogs. The class given is in vivo, dog. The conditions noted are these: 30 mg/kg/day for 14 days. The method, then: CSF was also collected from dogs at the end of the 14 day repeat study upon necropsy (approximately 24 hours after the final dose was administered). Levels of the scyllo-cyclohexanehexyl in CSF increased with dose and followed the profile observed in plasma.

The mark [8] stands for this setting: single oral doses 20, 80, 240 mg/kg.

For scyllo-inositol [AZD-103], in the data set “in vivo [1]”, the “half life (t1/2)” value lay within 2.1 to 2.7 h and the mean tmax was 1.0 to 2.2 h. In addition, in data set [2], the “Mean Cmax and AUC0-Inf in CSF as % of that observed in plasma” value came out at 60%. Also, in data set [2] (setting [8]), the “plasma tmax (same animals)” value was in the range of 2.3 to 2.8 h and the “tmax in CSF” value lay within 2.8 to 4.0 h. The “Mean Cmax in CSF as % of plasma Cmax” value in data set [2] (single oral doses 20, 80, 240 mg/kg, same animals) is 27-66%. Moreover, the “AUC0-Inf in CSF as % of that in plasma” value in data set [2] (single oral doses, same animals, listed as scyllo-cyclohexanehexyl) was 62% and 65%. Moreover, in “in vivo [3]”, the Tmax (as a rule, the time at which the peak concentration occurs) was 1.2 to 2.2 h and the t½ – broadly, how long it takes for the measured level to halve – was 1.7 to 2.2 h. The “mean plasma concentration 12 hours after the last administration” value in the data set “in vivo [4]” was roughly 6000 ng/mL. Besides, in the data set “in vivo [4]” (po, 150 mg/kg), the AUC(0-t) (commonly the area under the concentration-time curve up to a stated or last time point) came out at 573 µg·h/mL, the mean tmax fell in the range of 1.2 to 1.3 h and the t½ fell in the range of 3.1 to 4.4 h. Besides, the estimated bioavailability in data set [5] is greater than 90%. In addition, in “in vivo [6]”, the exposure AUC(0-t) was determined as 523 µg·h/mL, the Tmax fell in the range of 1.1 to 1.8 h and the t½ fell in the range of 2.9 to 4.7 h. In addition, the “levels in both plasma and CSF (12 and 24 hours after the last administration)” value in data set [7] is roughly 4000 ng/mL.
